pIC50: −log10 of the molar value. Like-named read-outs stand apart in the source and are kept apart here.

In one assay the target is NAMPT (Homo sapiens (Human), UniProt P43490). The experiment in a line: NAMPT biochemical inhibition assay (NMN quantified by mass spectrometry). The note with it: NAMPT biochemical inhibition; read-out: Biochem IC50.
The subject of another assay is A2780 cells. The experiment in a line: In-vitro cell proliferation assay (SRB), A2780 cells.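 Note: viable cell number read as SRB absorbance, background from media-only wells subtracted, IC50 interpolated from percent inhibition at two bracketing compound concentrations.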 It is filed as cell-based. The note with it: A2780 cells, 72 hours, SRB, read-out: A2780 IC50.

Sequence of NAMPT (P43490 whole entry): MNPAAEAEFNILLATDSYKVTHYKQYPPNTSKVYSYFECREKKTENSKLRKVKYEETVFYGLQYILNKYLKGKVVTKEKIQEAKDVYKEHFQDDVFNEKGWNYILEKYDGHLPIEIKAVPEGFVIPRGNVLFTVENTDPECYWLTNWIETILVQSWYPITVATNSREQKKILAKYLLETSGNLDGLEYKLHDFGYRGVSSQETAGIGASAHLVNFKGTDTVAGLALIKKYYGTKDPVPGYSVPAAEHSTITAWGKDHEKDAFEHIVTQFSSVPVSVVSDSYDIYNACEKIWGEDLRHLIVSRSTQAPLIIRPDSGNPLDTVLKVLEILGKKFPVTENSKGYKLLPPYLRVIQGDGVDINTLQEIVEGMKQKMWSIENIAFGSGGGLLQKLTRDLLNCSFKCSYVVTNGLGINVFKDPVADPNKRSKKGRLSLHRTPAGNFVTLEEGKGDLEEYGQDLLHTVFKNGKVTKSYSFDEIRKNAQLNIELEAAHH

As to `O=C(NCc1ccc2nccn2c1)c1ccc(S(=O)(=O)c2ccccc2Cl)cc1` [4-[(2-chlorobenzene)sulfonyl]-N-{imidazo[1,2-a]pyridin-6-ylmethyl}benzamide], the pIC50 – broadly, −log10 of the IC50, conventionally taken in molar units – on NAMPT was 7.71; with A2780 cells (Homo sapiens, A2780, 72 h) it was 8.41.
On to `O=C(NCc1ccc2nccn2c1)c1ccc(S(=O)(=O)c2cc(F)cc(F)c2)cc1` [4-[(3,5-difluorobenzene)sulfonyl]-N-{imidazo[1,2-a]pyridin-6-ylmethyl}benzamide], for which the pIC50 was 7.75 at NAMPT and 8.24 with A2780 cells (Homo sapiens, A2780, 72 h).
In the case of `O=C(NCc1ccc2nccn2c1)c1ccc(S(=O)(=O)c2cccc(Cl)c2)cc1` [4-[(3-chlorobenzene)sulfonyl]-N-{imidazo[1,2-a]pyridin-6-ylmethyl}benzamide], the negative-log IC50 (pIC50) on NAMPT was 7.92; in the assay on A2780 cells (Homo sapiens, A2780, 72 h) it was 8.19.
The matching figures for `O=C(NCc1ccc2nccn2c1)c1ccc(S(=O)(=O)Nc2cccc(Cl)c2)cc1` [4-[(3-chlorophenyl)sulfamoyl]-N-{imidazo[1,2-a]pyridin-6-ylmethyl}benzamide]: 6.86 and 8.15.
The matching figures for `COc1ccc(Cl)cc1NS(=O)(=O)c1ccc(C(=O)NCCc2cccnc2)cc1` [4-[(5-chloro-2-methoxyphenyl)sulfamoyl]-N-[2-(pyridin-3-yl)ethyl]benzamide]: 5.33 and 7.51.
Regarding `COc1ccc(Cl)cc1NS(=O)(=O)c1ccc(C(=O)NCc2ccc3nccn3c2)cc1` [4-[(5-chloro-2-methoxyphenyl)sulfamoyl]-N-{imidazo[1,2-a]pyridin-6-ylmethyl}benzamide], the pIC50 on NAMPT is 8.67; in the assay with A2780 cells (Homo sapiens, A2780, 72 h), 8.64.
As for `NC(=O)c1ccc(CNC(=O)Nc2ccc(S(=O)(=O)N3CCCCC3)cc2)cn1` [5-[({[4-(piperidine-1-sulfonyl)phenyl]carbamoyl}amino)methyl]pyridine-2-carboxamide], the pIC50 on NAMPT is less than 5.00; in the assay with A2780 cells (Homo sapiens, A2780, 72 h), 4.56.
Turning to `CCN(CC)C(=O)[C@H]1CCCN(S(=O)(=O)c2ccc(NC(=O)NCc3cccnc3)cc2)C1` [(3S)-N,N-diethyl-1-[(4-{[(pyridin-3-ylmethyl)carbamoyl]amino}benzene)sulfonyl]piperidine-3-carboxamide], the negative logarithm of the IC50 (pIC50) at NAMPT was 8.22; in the assay on A2780 cells, 7.60.
For the compound `CCN(CC)C(=O)c1ccccc1NS(=O)(=O)c1ccc(NC(=O)NCc2cccnc2)cc1` [N,N-diethyl-2-[(4-{[(pyridin-3-ylmethyl)carbamoyl]amino]benzene)sulfonamido]benzamide], the pIC50 was 8.10 on NAMPT and 8.22 in the assay with A2780 cells.
`CCN(CC)C(=O)CN1CCN(S(=O)(=O)c2ccc(NC(=O)NCc3cccnc3)cc2)CC1` [N,N-diethyl-2-{4-[(4-{[(pyridin-3-ylmethyl)carbamoyl]amino}benzene)sulfonyl]piperazin-1-yl}acetamide]: the pIC50 is 8.30 at NAMPT and 7.35 in the assay on A2780 cells (Homo sapiens, A2780, 72 h).
Turning to `CCN(CC)C(=O)c1cc(F)cc(S(=O)(=O)c2ccc(NC(=O)NCc3cccnc3)cc2)c1` [N,N-diethyl-3-fluoro-5-[(4-{[(pyridin-3-ylmethyl)carbamoyl]amino[benzene)sulfonyl]benzamide], the negative logarithm of the IC50 (pIC50) on NAMPT is 8.92; in the assay on A2780 cells it was 8.82.
With `CCN(CC)C(=O)c1ccc(F)c(S(=O)(=O)c2ccc(NC(=O)NCc3cccnc3)cc2)c1` [N,N-diethyl-4-fluoro-3-[(4-{[(pyridin-3-ylmethyl)carbamoyl]amino[benzene)sulfonyl]benzamide], the negative-log IC50 (pIC50) was 8.62 at NAMPT and 7.05 with A2780 cells.
For `CN(C)C(=O)C1CCN(S(=O)(=O)c2ccc(NC(=O)NCc3cccnc3)cc2)CC1` [N,N-dimethyl-1-[(4-{[(pyridin-3-ylmethyl)carbamoyl]amino}benzene)sulfonyl]piperidine-4-carboxamide], the pIC50 was 8.05 at NAMPT and 6.79 with A2780 cells (Homo sapiens, A2780, 72 h).
The matching figures for `CN(C)C(=O)c1ccccc1NS(=O)(=O)c1ccc(NC(=O)NCc2cccnc2)cc1` [N,N-dimethyl-2-[(4-{[(pyridin-3-ylmethyl)carbamoyl]amino}benzene)sulfonamido]benzamide]: 7.80 and 7.26.
For `CN(C)C(=O)c1cccc(S(=O)(=O)c2ccc(NC(=O)NCc3cccnc3)cc2)c1` [N,N-dimethyl-3-[(4-{[(pyridin-3-ylmethyl)carbamoyl]amino[benzene)sulfonyl]benzamide], the negative logarithm of the IC50 (pIC50) at NAMPT was 8.13; in the assay on A2780 cells it was 6.00 to 7.00.
On to `CN(C)C(=O)c1ccc(S(=O)(=O)c2ccc(NC(=O)NCc3cccnc3)cc2)cc1` [N,N-dimethyl-4-[(4-{[(pyridin-3-ylmethyl)carbamoyl]amino}benzene)sulfonyl]benzamide], for which the negative-log IC50 (pIC50) on NAMPT is 8.30; in the assay with A2780 cells (Homo sapiens, A2780, 72 h), 7.28.
For the compound `O=C(NCc1ccc2ncsc2c1)c1ccc(S(=O)(=O)c2cccc(Cl)c2)cc1` [N-(1,3-benzothiazol-6-ylmethyl)-4-[(3-chlorobenzene)sulfonyl]benzamide], the pIC50 at NAMPT is 4.94; with A2780 cells (Homo sapiens, A2780, 72 h) it was 8.01.
`O=C(NCc1cccnc1)Nc1ccc(S(=O)(=O)c2cccc(C(=O)NCCO)c2)cc1` [N-(2-hydroxyethyl)-3-[(4-{[(pyridin-3-ylmethyl)carbamoyl]amino[benzene)sulfonyl]benzamide]: the pIC50 was 8.11 at NAMPT and 6.00 to 7.00 in the assay on A2780 cells.
As to `CC(C)CNC(=O)c1cccc(S(=O)(=O)c2ccc(NC(=O)NCc3cccnc3)cc2)c1` [N-(2-methylpropyl)-3-[(4-{[(pyridin-3-ylmethyl)carbamoyl]amino[benzene)sulfonyl]benzamide], the figures for the pIC50 on NAMPT and with A2780 cells were 8.01 and 6.00 to 7.00, respectively.
On to `CC(C)NC(=O)CN1CCN(S(=O)(=O)c2ccc(NC(=O)NCc3cccnc3)cc2)CC1` [N-(propan-2-yl)-2-{4-[(4-{[(pyridin-3-ylmethyl)carbamoyl]amino}benzene)sulfonyl]piperazin-1-yl}acetamide], for which the pIC50 on NAMPT was 8.52; with A2780 cells (Homo sapiens, A2780, 72 h), 7.43.
For `CC(C)NC(=O)c1cccc(S(=O)(=O)c2ccc(NC(=O)NCc3cccnc3)cc2)c1` [N-(propan-2-yl)-3-[(4-{[(pyridin-3-ylmethyl)carbamoyl]amino[benzene)sulfonyl]benzamide], the pIC50 at NAMPT is 8.00; in the assay with A2780 cells, 6.00 to 7.00.
As to `O=C(NCCc1cccnc1)c1ccc(S(=O)(=O)c2cccc(OC(F)(F)F)c2)cc1` [N-[2-(pyridin-3-yl)ethyl]-4-{[3-(trifluoromethoxy)benzene]sulfonyl}benzamide], the negative logarithm of the IC50 (pIC50) at NAMPT is 5.03; in the assay with A2780 cells (Homo sapiens, A2780, 72 h) it was 6.43.
For `O=C(NCCc1cccnc1)c1ccc(S(=O)(=O)Nc2cccc(OC(F)(F)F)c2)cc1` [N-[2-(pyridin-3-yl)ethyl]-4-{[3-(trifluoromethoxy)phenyl]sulfamoyl[benzamide], the pIC50 on NAMPT is 4.69; in the assay on A2780 cells (Homo sapiens, A2780, 72 h), 5.81.
As for `O=C(Nc1nc(-c2cccnc2)cs1)c1ccc(S(=O)(=O)N2CCc3ccccc3C2)cc1` [N-[4-(pyridin-3-yl)-1,3-thiazol-2-yl]-4-(1,2,3,4-tetrahydroisoquinoline-2-sulfonyl)benzamide], the pIC50 was 4.95 at NAMPT and 5.58 with A2780 cells (Homo sapiens, A2780, 72 h).
In the case of `O=C(NCc1cccnc1)Nc1ccc(S(=O)(=O)c2cccc(C(=O)NC3CCCC3)c2)cc1` [N-cyclopentyl-3-[(4-{[(pyridin-3-ylmethyl)carbamoyl]amino[benzene)sulfonyl]benzamide], the negative logarithm of the IC50 (pIC50) on NAMPT is 8.02; in the assay on A2780 cells it was 6.00 to 7.00.
The matching figures for `O=C(NCc1cccnc1)Nc1ccc(S(=O)(=O)c2cccc(C(=O)NC3CC3)c2)cc1` [N-cyclopropyl-3-[(4-{[(pyridin-3-ylmethyl)carbamoyl]amino[benzene)sulfonyl]benzamide]: 8.19 and 6.00 to 7.00.
Regarding `CCNC(=O)c1cccc(S(=O)(=O)c2ccc(NC(=O)NCc3cccnc3)cc2)c1` [N-ethyl-3-[(4-{[(pyridin-3-ylmethyl)carbamoyl]amino[benzene)sulfonyl]benzamide], the negative-log IC50 (pIC50) is 8.17 on NAMPT and 6.00 to 7.00 with A2780 cells (Homo sapiens, A2780, 72 h).
As for `CCNC(=O)c1ccc(S(=O)(=O)c2ccc(NC(=O)NCc3cccnc3)cc2)cc1` [N-ethyl-4-[(4-{[(pyridin-3-ylmethyl)carbamoyl]amino[benzene)sulfonyl]benzamide], the negative logarithm of the IC50 (pIC50) at NAMPT was 8.89; in the assay with A2780 cells (Homo sapiens, A2780, 72 h) it was 7.40.
The matching figures for `CCN(C(C)=O)[C@H]1CCN(S(=O)(=O)c2ccc(NC(=O)NCc3cccnc3)cc2)C1` [N-ethyl-N-[(3S)-1-[(4-{[(pyridin-3-ylmethyl)carbamoyl]amino}benzene)sulfonyl]pyrrolidin-3-yl]acetamide]: 8.22 and 7.10.
With `CNC(=O)c1ccccc1NS(=O)(=O)c1ccc(NC(=O)NCc2cccnc2)cc1` [N-methyl-2-[(4-{[(pyridin-3-ylmethyl)carbamoyl]amino}benzene)sulfonamido]benzamide], the negative logarithm of the IC50 (pIC50) at NAMPT was 9.00; in the assay with A2780 cells (Homo sapiens, A2780, 72 h) it was 7.96.
The matching figures for `CNC(=O)c1ccc(S(=O)(=O)c2ccc(NC(=O)NCc3cccnc3)cc2)cn1` [N-methyl-5-[(4-{[(pyridin-3-ylmethyl)carbamoyl]amino}benzene)sulfonyl]pyridine-2-carboxamide]: 8.42 and 7.08.
The matching figures for `CN(C(=O)CN1CCN(S(=O)(=O)c2ccc(NC(=O)NCc3cccnc3)cc2)CC1)c1ccccc1` [N-methyl-N-phenyl-2-{4-[(4-{[(pyridin-3-ylmethyl)carbamoyl]amino}benzene)sulfonyl]piperazin-1-yl}acetamide]: 8.10 and 7.52.
As to `CC(=O)Nc1cccc(S(=O)(=O)c2ccc(NC(=O)NCc3cccnc3)cc2)c1` [N-{3-[(4-{[(pyridin-3-ylmethyl)carbamoyl]amino}benzene)sulfonyl]phenyl}acetamide], the negative logarithm of the IC50 (pIC50) on NAMPT was 8.82; with A2780 cells (Homo sapiens, A2780, 72 h) it was 7.40.
For `COc1cccc(S(=O)(=O)c2ccc(C(=O)NCc3ccc4nccn4c3)cc2)c1` [N-{imidazo[1,2-a]pyridin-6-ylmethyl}-4-[(3-methoxybenzene)sulfonyl]benzamide] the same measures were 7.72 and 8.45.
